{"source": "ChEMBL document CHEMBL5241130", "about": "“Integrating a phenotypic screening with a structural simplification strategy to identify 4-phenoxy-quinoline derivatives to potently disrupt the mitotic localization of Aurora kinase B” (Bioorg Med Chem, 2023)", "key": {"[1]": {"target": "Serine/threonine-protein kinase PLK2 (Homo sapiens) (UniProt Q9NYY3)", "sequence (Q9NYY3 whole entry, looked up)": "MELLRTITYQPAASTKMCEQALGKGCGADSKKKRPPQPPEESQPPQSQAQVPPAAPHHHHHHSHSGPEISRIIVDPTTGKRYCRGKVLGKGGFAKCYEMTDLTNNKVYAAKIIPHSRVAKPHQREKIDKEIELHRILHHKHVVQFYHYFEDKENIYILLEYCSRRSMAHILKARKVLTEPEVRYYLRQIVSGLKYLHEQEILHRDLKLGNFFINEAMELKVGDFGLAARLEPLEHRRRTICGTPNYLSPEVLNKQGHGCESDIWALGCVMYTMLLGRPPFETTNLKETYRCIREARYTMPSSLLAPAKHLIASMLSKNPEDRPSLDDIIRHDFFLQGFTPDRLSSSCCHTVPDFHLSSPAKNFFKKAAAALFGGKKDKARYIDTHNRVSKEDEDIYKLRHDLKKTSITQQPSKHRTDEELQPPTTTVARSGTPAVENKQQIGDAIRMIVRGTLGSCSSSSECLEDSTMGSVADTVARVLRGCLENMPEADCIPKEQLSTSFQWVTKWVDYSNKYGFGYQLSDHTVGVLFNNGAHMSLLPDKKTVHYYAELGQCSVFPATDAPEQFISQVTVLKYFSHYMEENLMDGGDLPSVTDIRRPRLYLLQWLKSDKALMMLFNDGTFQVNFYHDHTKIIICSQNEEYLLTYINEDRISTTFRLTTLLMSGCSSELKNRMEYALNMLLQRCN", "test": "Inhibition of PLK2 (unknown origin) by bio-chip based analysis"}, "[2]": {"target": "Aurora kinase B (Homo sapiens) (UniProt Q96GD4)", "sequence (Q96GD4 whole entry)": "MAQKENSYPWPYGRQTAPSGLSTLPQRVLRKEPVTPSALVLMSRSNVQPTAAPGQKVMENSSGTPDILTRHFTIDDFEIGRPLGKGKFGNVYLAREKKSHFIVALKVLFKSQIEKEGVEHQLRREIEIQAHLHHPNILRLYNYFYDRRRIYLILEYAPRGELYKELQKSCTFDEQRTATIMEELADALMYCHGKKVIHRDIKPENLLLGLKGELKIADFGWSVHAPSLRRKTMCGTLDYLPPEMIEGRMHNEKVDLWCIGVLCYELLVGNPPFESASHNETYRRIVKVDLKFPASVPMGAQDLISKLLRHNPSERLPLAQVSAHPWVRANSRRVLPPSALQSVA", "test": "Disruption of mitotic localization of AURKB in human RPE-MYC cells expressing BCL2 assessed as disruption of MKLP1 localization at spindle mid-zone at 40 nM measured after 6 hrs by immunofluorescence staining analysis", "assay_type": "cell-based"}, "[3]": {"tested_on": "Tyrosine-protein kinase ABL1 (Homo sapiens), P00519 [F317L]", "test": "Inhibition of human recombinant ABL1 F317L mutant at 2 uM by KINOMEscan assay"}, "[4]": {"target": "Mast/stem cell growth factor receptor Kit (Homo sapiens, UniProt P10721)", "sequence (P10721 whole entry)": "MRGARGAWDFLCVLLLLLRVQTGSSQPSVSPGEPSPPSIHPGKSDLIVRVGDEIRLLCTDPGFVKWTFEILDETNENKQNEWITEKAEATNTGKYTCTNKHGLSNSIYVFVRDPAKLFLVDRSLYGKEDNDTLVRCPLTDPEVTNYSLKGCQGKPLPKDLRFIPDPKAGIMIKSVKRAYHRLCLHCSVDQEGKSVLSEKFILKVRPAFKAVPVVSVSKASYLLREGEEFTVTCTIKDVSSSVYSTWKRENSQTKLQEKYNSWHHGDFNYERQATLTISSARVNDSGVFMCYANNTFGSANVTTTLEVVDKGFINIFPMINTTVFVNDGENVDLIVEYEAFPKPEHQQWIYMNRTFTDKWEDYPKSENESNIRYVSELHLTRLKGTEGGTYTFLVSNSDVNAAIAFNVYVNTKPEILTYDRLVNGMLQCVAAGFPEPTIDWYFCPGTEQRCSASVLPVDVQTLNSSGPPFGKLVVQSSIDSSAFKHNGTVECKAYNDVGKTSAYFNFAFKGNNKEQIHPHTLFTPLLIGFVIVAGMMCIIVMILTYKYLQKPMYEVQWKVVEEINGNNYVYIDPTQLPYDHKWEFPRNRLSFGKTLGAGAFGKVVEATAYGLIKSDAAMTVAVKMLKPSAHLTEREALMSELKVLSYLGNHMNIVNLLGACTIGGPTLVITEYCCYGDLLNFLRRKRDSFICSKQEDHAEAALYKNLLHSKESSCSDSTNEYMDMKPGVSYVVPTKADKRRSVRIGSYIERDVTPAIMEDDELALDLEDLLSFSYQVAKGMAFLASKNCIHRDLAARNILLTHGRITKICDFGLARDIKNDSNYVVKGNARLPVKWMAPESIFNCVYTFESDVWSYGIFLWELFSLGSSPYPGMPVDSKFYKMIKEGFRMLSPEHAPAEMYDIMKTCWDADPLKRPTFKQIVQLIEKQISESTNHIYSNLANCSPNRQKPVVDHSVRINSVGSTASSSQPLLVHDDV", "test": "Inhibition of c-Kit (unknown origin)", "assay_type": "toxicity"}, "[5]": {"target": "Aurora kinase B (Homo sapiens) (UniProt Q96GD4)", "test": "Disruption of mitotic localization of AURKB in human RPE-MYC cells expressing BCL2 assessed as disruption of PLK1 localization at spindle mid-zone at 40 nM measured after 6 hrs by immunofluorescence staining analysis", "assay_type": "cell-based"}, "NCI-H23": {"tested_on": "NCI-H23", "test": "Cytotoxicity against human NCI-H23 cells assessed as cell growth inhibition incubated for 3 days by MTT assay", "assay_type": "functional, cell-based", "settings": "time 3.0 day"}, "[6]": {"test": "Kinetic solubility of the compound in HCl buffer at pH 2.2 measured after 72 hrs by LC-MS analysis", "assay_type": "physicochemical", "settings": "read-out: Kinetic_solubility"}, "[7]": {"target": "Rho-associated protein kinase 2 (Homo sapiens) (UniProt O75116)", "test": "Inhibition of ROCK2 (unknown origin) by bio-chip based analysis"}, "[8]": {"test": "Lipophilicity, log D of the compound in Octanol and HCl buffer at pH 2.2 incubated for 24 hrs under shaking condition followed by incubation for 1 hr without shaking by LC-MS analysis", "assay_type": "physicochemical"}, "[9]": {"target": "Aurora kinase B (Homo sapiens) (UniProt Q96GD4)", "test": "Disruption of kinetochore localization of AURKB during anaphase of human RPE-MYC cells expressing BCL2 at 40 nM measured after 6 hrs by immunofluorescence staining analysis", "assay_type": "cell-based"}, "[10]": {"test": "Drug degradation in PBS buffer at pH 7.4 measured after 72 hrs by LC-MS analysis", "assay_type": "physicochemical", "settings": "read-out: Drug degradation"}, "[11]": {"test": "Volume of distribution at steady state in Wistar rat at 2 mg/kg, iv measured after 24 hrs by LC-MS/MS analysis", "assay_type": "ADME, organism-based", "settings": "in vivo, read-out: Vdss"}, "[12]": {"test": "Apparent volume of distribution in Wistar rat at 20 mg/kg, po measured for 24 hrs by LC-MS/MS analysis", "assay_type": "ADME, organism-based", "settings": "in vivo"}, "[13]": {"target": "Discoidin domain-containing receptor 2 (Homo sapiens, UniProt Q16832)", "test": "Inhibition of DDR2 (unknown origin) assessed as inhibition of DDR2 interaction with DNA-bound ligand by qPCR analysis"}, "[14]": {"test": "Ratio of drug uptake in tumor of BALB/c nude mouse xenografted with human HCT-116 cells at 50 mg/kg, po bid for 7 days and measured at 6 hrs post-last drug administration to MEC for disruption of mitotic localization of AURKB in human RPE-MYC H2B-GFP cells assessed as induction of mitotic arrest measured after 24 hrs"}, "[15]": {"test": "Kinetic solubility of the compound in PBS buffer at pH 7.4 measured after 72 hrs by LC-MS analysis", "assay_type": "physicochemical", "settings": "read-out: Kinetic_solubility"}, "[16]": {"test": "Drug degradation in HCl buffer at pH 2.2 measured after 72 hrs by LC-MS analysis", "assay_type": "physicochemical", "settings": "read-out: Drug degradation"}, "[17]": {"test": "Dose normalized AUC (0 to infinity) in Wistar rat at 20 mg/kg, po by LC-MS/MS analysis", "assay_type": "ADME, organism-based", "settings": "in vivo"}, "[18]": {"target": "Serine/threonine-protein kinase PLK4 (Homo sapiens) (UniProt O00444)", "sequence (O00444 whole entry)": "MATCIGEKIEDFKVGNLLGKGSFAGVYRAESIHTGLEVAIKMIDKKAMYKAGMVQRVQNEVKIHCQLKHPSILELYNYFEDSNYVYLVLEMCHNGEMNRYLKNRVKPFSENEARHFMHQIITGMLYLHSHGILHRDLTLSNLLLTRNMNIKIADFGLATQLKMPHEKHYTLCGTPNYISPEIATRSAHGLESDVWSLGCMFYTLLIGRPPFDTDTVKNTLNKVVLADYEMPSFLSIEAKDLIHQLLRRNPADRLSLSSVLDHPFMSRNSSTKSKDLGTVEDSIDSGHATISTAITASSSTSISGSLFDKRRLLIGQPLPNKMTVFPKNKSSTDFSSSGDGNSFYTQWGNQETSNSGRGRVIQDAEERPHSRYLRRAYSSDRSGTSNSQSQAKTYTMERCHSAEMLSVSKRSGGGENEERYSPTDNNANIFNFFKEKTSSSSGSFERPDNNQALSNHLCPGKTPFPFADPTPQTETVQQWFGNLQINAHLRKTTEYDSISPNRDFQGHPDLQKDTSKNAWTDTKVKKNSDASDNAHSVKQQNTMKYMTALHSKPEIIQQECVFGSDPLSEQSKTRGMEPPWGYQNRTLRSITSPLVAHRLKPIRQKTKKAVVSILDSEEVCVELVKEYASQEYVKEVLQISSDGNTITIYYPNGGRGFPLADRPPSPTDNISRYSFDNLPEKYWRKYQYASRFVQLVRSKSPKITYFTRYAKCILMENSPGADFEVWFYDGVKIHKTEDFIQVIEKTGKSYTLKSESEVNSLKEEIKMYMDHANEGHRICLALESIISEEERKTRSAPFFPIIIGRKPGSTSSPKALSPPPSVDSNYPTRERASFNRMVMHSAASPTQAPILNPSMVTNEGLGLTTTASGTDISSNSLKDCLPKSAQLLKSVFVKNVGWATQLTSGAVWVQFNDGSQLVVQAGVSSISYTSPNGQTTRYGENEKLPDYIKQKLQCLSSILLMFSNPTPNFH", "test": "Inhibition of PLK4 (unknown origin) by bio-chip based analysis"}, "[19]": {"target": "Serine/threonine-protein kinase PLK3 (Homo sapiens) (UniProt Q9H4B4)", "sequence (Q9H4B4 whole entry, looked up)": "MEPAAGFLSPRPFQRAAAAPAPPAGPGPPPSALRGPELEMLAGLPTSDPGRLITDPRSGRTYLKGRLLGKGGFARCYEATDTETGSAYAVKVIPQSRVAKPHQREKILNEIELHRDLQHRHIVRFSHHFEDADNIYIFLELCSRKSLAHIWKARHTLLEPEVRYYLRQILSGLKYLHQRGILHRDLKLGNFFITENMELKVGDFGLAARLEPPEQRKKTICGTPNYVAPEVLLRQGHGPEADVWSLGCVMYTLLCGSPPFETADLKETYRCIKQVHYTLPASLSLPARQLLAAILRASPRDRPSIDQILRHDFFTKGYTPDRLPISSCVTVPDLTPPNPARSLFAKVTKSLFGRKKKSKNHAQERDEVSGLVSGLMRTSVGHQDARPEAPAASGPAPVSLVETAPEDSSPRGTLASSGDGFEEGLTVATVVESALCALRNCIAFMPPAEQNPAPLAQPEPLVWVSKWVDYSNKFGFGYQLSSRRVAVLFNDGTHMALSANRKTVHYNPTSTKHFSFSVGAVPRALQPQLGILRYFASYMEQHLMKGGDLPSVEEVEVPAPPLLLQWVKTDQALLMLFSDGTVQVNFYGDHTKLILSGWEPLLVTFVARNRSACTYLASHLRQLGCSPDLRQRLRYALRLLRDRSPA", "test": "Inhibition of PLK3 (unknown origin) by bio-chip based analysis"}, "[20]": {"test": "Tmax in Wistar rat at 20 mg/kg, po measured for 24 hrs by LC-MS/MS analysis", "assay_type": "ADME, organism-based", "settings": "in vivo"}, "[21]": {"test": "Drug uptake in tumor of BALB/c nude mouse xenografted with human HCT-116 cells at 50 mg/kg, po bid for 7 days and measured at 6 hrs post-last drug administration by LC-MS/MS analysis", "assay_type": "ADME, organism-based, Neoplasm", "settings": "time 7 day, read-out: Drug uptake"}, "HeLa": {"tested_on": "HeLa", "test": "Cytotoxicity against human HeLa cells assessed as cell growth inhibition incubated for 3 days by MTT assay", "assay_type": "functional, cell-based", "settings": "time 3.0 day"}, "[22]": {"test": "Half life in Wistar rat at 20 mg/kg, po measured for 24 hrs by LC-MS/MS analysis", "assay_type": "ADME, organism-based", "settings": "in vivo"}, "Mus musculus": {"tested_on": "Mus musculus", "test": "Induction of polyploidy in BALB/c nude mouse xenografted with human HCT-116 cells assessed as increase in polyploid cells in tumor at 50 mg/kg, po bid for 7 days by immunohistochemical staining based analysis relative to control", "assay_type": "functional", "settings": "time 7 day"}, "[23]": {"tested_on": "Tyrosine-protein kinase ABL1 (Homo sapiens), P00519 [Q252H]", "test": "Inhibition of human recombinant ABL1 Q252H mutant at 2 uM by KINOMEscan assay"}, "[24]": {"target": "Serine/threonine-protein kinase PLK1 (Homo sapiens) (UniProt P53350)", "sequence (P53350 whole entry)": "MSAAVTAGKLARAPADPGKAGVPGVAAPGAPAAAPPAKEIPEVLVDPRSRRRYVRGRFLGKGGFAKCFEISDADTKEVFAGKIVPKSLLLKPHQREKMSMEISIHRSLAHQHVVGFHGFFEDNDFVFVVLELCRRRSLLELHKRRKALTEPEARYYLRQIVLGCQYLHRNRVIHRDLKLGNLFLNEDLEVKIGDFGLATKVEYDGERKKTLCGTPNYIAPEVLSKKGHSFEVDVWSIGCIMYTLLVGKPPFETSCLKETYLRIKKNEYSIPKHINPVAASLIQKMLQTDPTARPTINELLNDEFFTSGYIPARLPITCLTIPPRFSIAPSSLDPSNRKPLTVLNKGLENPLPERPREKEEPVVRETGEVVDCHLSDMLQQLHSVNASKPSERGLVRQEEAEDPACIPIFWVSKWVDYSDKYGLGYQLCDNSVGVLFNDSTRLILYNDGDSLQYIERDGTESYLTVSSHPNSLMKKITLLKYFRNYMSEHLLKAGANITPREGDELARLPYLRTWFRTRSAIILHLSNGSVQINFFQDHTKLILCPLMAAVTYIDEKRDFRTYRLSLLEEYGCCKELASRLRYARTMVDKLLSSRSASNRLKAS", "test": "Inhibition of PLK1 (unknown origin) by bio-chip based analysis"}, "[25]": {"target": "Aurora kinase B (Homo sapiens) (UniProt Q96GD4)", "test": "Disruption of mitotic localization of AURKB in human RPE-MYC H2B-GFP cells assessed as induction of mitotic arrest by fluorescence high content cell imaging analysis", "assay_type": "cell-based"}, "[26]": {"target": "Aurora kinase B (Homo sapiens) (UniProt Q96GD4)", "test": "Inhibition of AURKB in human RPE-MYC H2B-GFP cells assessed as inhibition of histone H3 phosphorylation at Ser10 residue at 8XMEC measured after 6 hrs by immunofluorescence staining analysis", "assay_type": "cell-based"}, "[27]": {"target": "T1, Aurora kinase A (Homo sapiens) (UniProt O14965)", "T1 sequence (whole entry)": "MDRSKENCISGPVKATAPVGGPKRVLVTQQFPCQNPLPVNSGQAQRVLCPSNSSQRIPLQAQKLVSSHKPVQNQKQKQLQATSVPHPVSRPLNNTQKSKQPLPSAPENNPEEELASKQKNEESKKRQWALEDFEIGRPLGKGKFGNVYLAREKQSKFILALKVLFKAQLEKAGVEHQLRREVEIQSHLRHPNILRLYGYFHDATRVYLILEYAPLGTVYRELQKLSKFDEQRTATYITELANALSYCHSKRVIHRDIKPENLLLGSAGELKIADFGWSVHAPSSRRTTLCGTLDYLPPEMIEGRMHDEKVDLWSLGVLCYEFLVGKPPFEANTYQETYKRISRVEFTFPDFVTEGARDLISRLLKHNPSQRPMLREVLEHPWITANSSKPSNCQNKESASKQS", "test": "Inhibition of AURKA in human RPE-MYC H2B-GFP cells assessed as inhibition of autophosphorylation of AURKA at Thr288 residue at 8XMEC measured after 6 hrs by immunofluorescence staining analysis", "assay_type": "cell-based"}, "[28]": {"target": "Receptor-type tyrosine-protein kinase FLT3 (Homo sapiens, UniProt P36888)", "test": "Inhibition of FLT3 (unknown origin)", "assay_type": "toxicity"}, "[29]": {"test": "MRT (0 to infinity) in Wistar rat at 2 mg/kg, iv by LC-MS/MS analysis", "assay_type": "ADME, organism-based", "settings": "in vivo"}, "[30]": {"target": "Discoidin domain-containing receptor 2 (Homo sapiens) (UniProt Q16832)", "test": "Inhibition of human recombinant DDR2 at 2 uM by KINOMEscan assay"}}, "note": "Active and inactive are the calls of the source. The rule behind the calls is not given here."}
{"smiles": "COc1cc(NC(C)=O)cc(Oc2ccnc3ccc(OC)cc23)c1", "values": [{"measurement": "inhibition", "setting": "[1]", "value": "inactive"}, {"measurement": "Activity", "setting": "[2]", "value": "Active"}, {"measurement": "inhibition", "setting": "[3]", "value": "Active"}, {"measurement": "inhibition (INH)", "setting": "[4]", "value": "Not Active"}, {"measurement": "Activity", "setting": "[5]", "value": "Active"}, {"measurement": "Activity", "setting": "NCI-H23", "value": "Active"}, {"measurement": "solubility kinetic at 72 h", "setting": "[6]", "value": "> 190", "unit": "µM"}, {"measurement": "inhibition", "setting": "[7]", "value": "inactive"}, {"measurement": "logD at 25 h", "setting": "[8]", "value": 0.31}, {"measurement": "Activity", "setting": "[9]", "value": "Active"}, {"measurement": "degraded at 72 h", "setting": "[10]", "value": 0, "unit": "%"}, {"measurement": "Vd", "setting": "[11]", "value": 3.7, "unit": "L/kg"}, {"measurement": "Vz", "setting": "[12]", "value": 15.41, "unit": "L/kg"}, {"measurement": "IC50", "setting": "[13]", "value": 225, "unit": "nM"}, {"measurement": "Ratio", "setting": "[14]", "value": 70}, {"measurement": "solubility kinetic at 72 h", "setting": "[15]", "value": 16, "unit": "µM"}, {"measurement": "degraded at 72 h", "setting": "[16]", "value": 0, "unit": "%"}, {"measurement": "AUC/dose", "setting": "[17]", "value": 149.54, "unit": "ng·h/mL/mg/kg"}, {"measurement": "inhibition", "setting": "[18]", "value": "inactive"}, {"measurement": "inhibition", "setting": "[19]", "value": "inactive"}, {"measurement": "Tmax", "setting": "[20]", "value": 0.5, "unit": "h"}, {"measurement": "concentration at 168 h", "setting": "[21]", "value": 239, "unit": "ng/mL"}, {"measurement": "Activity", "setting": "HeLa", "value": "Active"}, {"measurement": "half-life", "setting": "[22]", "value": 3.26, "unit": "h"}, {"measurement": "fold change (FC)", "setting": "Mus musculus", "value": 1.7}, {"measurement": "inhibition", "setting": "[23]", "value": "Active"}, {"measurement": "inhibition", "setting": "[24]", "value": "inactive"}, {"measurement": "Activity", "setting": "[25]", "value": "inactive"}, {"measurement": "inhibition", "setting": "[26]", "value": "< 40", "unit": "%"}, {"measurement": "inhibition", "setting": "[27]", "value": "< 40", "unit": "%"}, {"measurement": "inhibition (INH)", "setting": "[28]", "value": "Not Active"}, {"measurement": "MRT inf", "setting": "[29]", "value": 2.09, "unit": "h"}, {"measurement": "inhibition", "setting": "[30]", "value": "Active"}]}
